Columns and labels:
[1] = tested on: fibroblast proliferation; test: Fibroblast proliferation in vitro, effect of pre-heating the protein; assay type: cell-based
Description: It is reasonable to expect that pre-heating of PALP at 65-75° C. prior to its use may also enhance its anti-cachectic effect. Thus, a step of heat-activation of both commercial and highly purified PALP preparation may be included prior to their applications.
Thus, pre-heating of TF-containing compositions to enhance the effects of other components, such as PALP and AT will unlikely to alter the ability of TF to reduce tumor- and chemotherapy-induced body weight loss.
Therefore, a step of heat-activation of AT may be included during the preparation of active compositions.

[2] = tested on: MXT mouse mammary tumor; test: Cisplatin-treated MXT mouse mammary tumor model, PALP and TF (Example 9, Experiment 1); assay type: in vivo; details: co-treated with cisplatin 3-mg/kg i.p.
Description: (§1) The B16 mouse melanoma and MXT mouse mammary tumors were developed in first generation hybrid BDF1 (C57 B1 female×DBA/2 male) adult female mice kept at specified pathogen free (SPF) hygienic level. These models were chosen for these experiments because these mice have the complete immune system, and both tumors grow very rapidly. To develop the tumors, B16 and MXT tumor tissue fragments of about 0.1-cm^3 were surgically implanted subcutaneously into the intrascapular region to develop the tumors. Each tumor fragment contained about 1-1.5×10^6 cells. The animals were kept in macrolon cages on ventilated rack at 22-24° C. (50-60% humidity) with lighting regimen of 12/12 h light/dark. The animals had free access to tap water and were fed with sterilized standard diet (Charles River VRF1, Germany) ad libitum. The animals were taken care of according to the “Guiding Principle for the care and use of Animals” based upon the Helsinki declaration and they were approved by the local ethical committee.
(§2) In case of both tumor models the tumor size was usually in the range of 0.2 to 0.5-g when treatments started 7-11 days after tumor implantation; the mice were selected so that in the same treatment group the difference in tumor size was no greater than 0.1 gram. In some experiments, the test proteins were suspended in physiological saline and injected in 50-μl volume subcutaneously in the vicinity of tumor (within 1-cm of tumor margin). In other experiments, the test proteins were dispersed in Vaselinum cholesteratum and used topically; 150-mg cream was applied on the tumor and the vicinity of tumor area (with about 0.5-cm of the tumor margin). The tumor volume was determined by using calipers; this technique is well known to one having ordinary skill in the art. Tumor volume was calculated according to the generally accepted formula: V=a^2×b×7r/6, where “a” and “b” mean the shortest and longest diameter, respectively, of the measured tumor.
Experiment 1. The mouse MXT mammary tumor was developed as described in Example 3. In the first group, animals remained untreated during the whole observation period. In the second group, starting on the 7th day after tumor implantation, mice were intraperitoneally (i.p.) administered 3-mg per 1-kg total weight of cisplatin 7-times every second day. In the third group, starting on the 7th day after tumor implantation, mice were simultaneously administered 3-mg per 1-kg of cisplatin i.p. and 16-mg per 1-kg of purified PALP s.c. In the fourth group, starting on the 7th day after tumor implantation, mice were simultaneously administered 3-mg per 1-kg of cisplatin i.p. and 60-mg per 1-kg of commercial PALP s.c. In the fifth group, starting on the 7th day after tumor implantation, mice were simultaneously administered 3-mg per 1-kg of cisplatin i.p. and 14-mg per 1-kg of commercial TF (T 3309 in the Sigma catalog) s.c. Each treatment was performed 7-times on every second day. Each group included 7 animals. The mean values for total weight, tumor weight and body weight (the difference between total and tumor weight) are shown in TABLE 6.

[3] = tested on: B16 mouse melanoma; test: B16 mouse melanoma model, s.c. commercial PALP, s.c. plus topical PALP, or TF (Example 4, Experiment 2); assay type: in vivo; details: TF 16-mg/kg s.c.; for Body weight (total weight minus tumor weight) / Total weight / Tumor weight: days 11-18 daily: commercial PALP 60-mg/kg s.c., topical cream 4-mg commercial PALP/g
Description: as §1, §2
In this model, either highly purified PALP or commercial PALP was subcutaneously injected to reverse body weight loss in the rapidly growing B16 melanoma model. Two separate experiments were performed to validate the effects of highly purified PALP (Experiment 1) and commercial PALP (Experiment 2). For both experiments, the B16 mouse melanoma model was developed as described in Example 3. The data presented in TABLE 1 (for Experiment 1) and TABLE 2 (for Experiment 2) show the changes in total weight, tumor weight, and body weight (total weight minus tumor weight). In each experimental group all mice survived until the conclusion of the experiment.
Experiment 2. In this experiment, the first group of animals remained untreated for the entire observation period. In the second group, from day 11 through day 18 after implantation of tumor pieces, the animals were treated daily with 60-mg/kg of commercial PALP via s.c. administration (seven treatments). In the third group, from day 11 through day 18 after implantation of tumor pieces, the animals were simultaneously administered 60-mg/kg of commercial PALP via s.c injection and treated topically with 150-mg of cream containing 4-mg commercial PALP in 1-g of Vaselinum cholesteratum (seven treatments). Topical treatment involved spreading the cream on both the tumor and surrounding skin area. In the fourth group, from day 11 through day 18 after implantation of tumor pieces, the animals were treated with 16-mg/kg of commercial partially iron-saturated TF via subcutaneous administration (seven treatments). Each group included seven mice.

[4] = tested on: fibroblast proliferation; details: in vitro; cited from earlier work
[5] = tested on: MXT mouse mammary tumor; test: Cisplatin-treated MXT mouse mammary tumor model, purified PALP, AT, holo-TF, apo-TF (Example 9, Experiment 2); assay type: in vivo; details: 12-mg/kg s.c. with cisplatin 3-mg/kg i.p.
Description: as §1, §2
Experiment 2. The commercial PALP used in this model for Exp. 1 was composed of PALP (˜10%), TF (˜12%), AT (˜30%), albumin (˜35%) and the degradation products of TF (˜13%). […] In this experiment, it was determined whether the other two major proteins, i.e. TF and AT, present in the commercial PALP preparation in addition to PALP, also influence cisplatin-induced loss of body weight or not. The mouse MXT mammary tumor was developed as described in Example 3. In the first group, animals remained untreated during the whole observation period. In the second group, starting on the 7th day after tumor implantation, mice were administered 3-mg per 1-kg of cisplatin i.p. 6-times every second day. In the third group, starting on the 7th day after tumor implantation, mice were simultaneously administered 3-mg per 1-kg of cisplatin i.p. and 12-mg per 1-kg of purified PALP s.c. In the fourth group, starting on the 7th day after tumor implantation, mice were simultaneously administered 3-mg per 1-kg of cisplatin i.p. and 12-mg per 1-kg of highly purified AT s.c. In the fifth group, starting on the 7th day after tumor implantation, mice were simultaneously administered 3-mg per 1-kg of cisplatin i.p. and 12-mg per 1-kg of commercial holo-TF (h-TF, T 0665 in the Sigma catalog) s.c. In the sixth group, starting on the 7th day after tumor implantation, mice were simultaneously administered 3-mg per 1-kg of cisplatin i.p. and 12-mg per 1-kg of commercial apo-TF (a-TF, T 2036 in the Sigma catalog) s.c. Holo-TF contained 1,100-1,600 μg iron per gram protein while apo-TF was essentially iron-free. Each treatment with the proteins was also performed 6-times on every second day simultaneously with the cisplatin treatment. Each group included 7 animals. The mean values for total weight, tumor weight and body weight (the difference between total and tumor weight) are shown in gram in TABLE 7.

[6] = tested on: B16 mouse melanoma; test: B16 mouse melanoma model, s.c. highly purified PALP (Example 4, Experiment 1); assay type: in vivo; details: highly purified PALP 14-mg/kg s.c.
Description: The B16 mouse melanoma and MXT mouse mammary tumors were developed in first generation hybrid BDF1 (C57 B1 female×DBA/2 male) adult female mice kept at specified pathogen free (SPF) hygienic level. These models were chosen for these experiments because these mice have the complete immune system, and both tumors grow very rapidly. To develop the tumors, B16 and MXT tumor tissue fragments of about 0.1-cm^3 were surgically implanted subcutaneously into the intrascapular region to develop the tumors. Each tumor fragment contained about 1-1.5×10^6 cells. The animals were kept in macrolon cages on ventilated rack at 22-24° C. (50-60% humidity) with lighting regimen of 12/12 h light/dark. The animals had free access to tap water and were fed with sterilized standard diet (Charles River VRF1, Germany) ad libitum. […]
In case of both tumor models the tumor size was usually in the range of 0.2 to 0.5-g when treatments started 7-11 days after tumor implantation; the mice were selected so that in the same treatment group the difference in tumor size was no greater than 0.1 gram. […] The tumor volume was determined by using calipers; this technique is well known to one having ordinary skill in the art. Tumor volume was calculated according to the generally accepted formula: V=a^2×b×7r/6, where “a” and “b” mean the shortest and longest diameter, respectively, of the measured tumor. […]

[7] = tested on: mouse MXT tumor; details: cisplatin treated; cited from earlier work
[8] = tested on: human HT 168 melanoma; details: total weight includes tumor weight; cited from earlier work
[9] = tested on: B16 mouse melanoma; details: cited from earlier work
[10] = day 11 after tumor transplantation
[11] = day 14 after tumor transplantation
[12] = day 16 after tumor transplantation
[13] = day 18 after tumor transplantation
[14] = day 21 after tumor transplantation
[15] = day 23 after tumor transplantation

TF s.c.: commercial partially iron-saturated human transferrin (Sigma T 3309)
Effect of pre-heating on the stimulatory effects on fibroblast proliferation [1]: not altered by pre-heating it at up to 75 °C for 30 min
Effect on body weight loss induced by the tumor and cisplatin [2]: partially reversed body weight loss
Effect on body weight loss ([3]; commercial PALP 60-mg/kg s.c.): stabilized body weights but did not promote weight gain
Body weight (total weight minus tumor weight) [3, 10]: 22.4 gram
Total weight [3, 10]: 22.9 gram
Tumor weight [3, 10]: 0.5 gram
Body weight (total weight minus tumor weight) [3, 11]: 23.5 gram
Total weight [3, 11]: 24.2 gram
Tumor weight [3, 11]: 0.7 gram
Body weight (total weight minus tumor weight) [3, 12]: 23.5 gram
Total weight [3, 12]: 24.3 gram
Tumor weight [3, 12]: 0.8 gram
Body weight (total weight minus tumor weight) [3, 13]: 23.6 gram
Total weight [3, 13]: 25.0 gram
Tumor weight [3, 13]: 1.4 gram
Body weight (total weight minus tumor weight) [3, 14]: 23.9 gram
Total weight [3, 14]: 26.1 gram
Tumor weight [3, 14]: 2.2 gram
Body weight (total weight minus tumor weight) [3, 15]: 23.9 gram
Total weight [3, 15]: 26.6 gram
Tumor weight [3, 15]: 2.7 gram

AT: human α1-antitrypsin purified to homogeneity from commercial PALP
Effect of pre-heating on the stimulatory effect on fibroblast proliferation [4]: enhanced by pre-heating it at 65-75 °C for 30 min or at 41 °C for 21 hours
Effect on cisplatin-induced body weight loss [5]: partially reversed cisplatin-induced body weight loss

B1: highly purified PALP: human placental alkaline phosphatase purified to homogeneity from commercial PALP; printed as 'PALP' in Tables 1, 7, 8 (protein, UniProt P05187 23-506, looked up)
Alkaline phosphatase, …: IIPVEEENPDFWNREAAEALGAAKKLQPAQTAAKNLIIFLGDGMGVSTVTAARILKGQKKDKLGPEIPLAMDRFPYVALSKTYNVDKHVPDSGATATAYLCGVKGNFQTIGLSAAARFNQCNTTRGNEVISVMNRAKKAGKSVGVVTTTRVQHASPAGTYAHTVNRNWYSDADVPASARQEGCQDIATQLISNMDIDVILGGGRKYMFRMGTPDPEYPDDYSQGGTRLDGKNLVQEWLAKRQGARYVWNRTELMQASLDPSVTHLMGLFEPGDMKYEIHRDSTLDPSLMEMTEAALRLLSRNPRGFFLFVEGGRIDHGHHESRAYRALTETIMFDDAIERAGQLTSEEDTLSLVTADHSHVFSFGGYPLRGSSIFGLAPGKARDRKAYTVLLYGNGPGYVLKDGARPDVTESESGSPEYRQQSAVPLDEETHAGEDVAVFARGPQAHLVHGVQEQTFIAHVMAFAACLEPYTACDLAPPAGTTD
Effect on loss of body weight [6]: reversed loss of body weight
Effect on tumor size [6]: no major effects on the tumor size
Effect on body weight loss induced by the tumor and cisplatin [2]: not only prevented the loss but significantly enhanced body weight
Effect on total weight loss [7]: reduce total weight loss
Effect on tumor induced loss of total weight [8]: reduces tumor induced loss of total weight
Effect on tumor growth ([9]; administered subcutaneously or topically): reduced tumor growth
Effect on the action of CCDTHT on tumor growth ([9]; mouse, in vivo): enhance the effect of CCDTHT
